Results on one compound are retold here after patent publication US12391768B2, “Antibodies to ticagrelor and methods of use” (MEDIMMUNE LIMITED, priority 2014, dated 2025).

The nature of data set [1]: Total plasma concentration of ticagrelor and TAM (LC-MS/MS). In kind it is in vivo, mice. On the procedure: Blood samples were collected in tubes with EDTA anticoagulant and centrifuged for 5 min at 10000× g at room temperature to prepare plasma. The plasma concentration of ticagrelor and TAM were determined by protein precipitation and liquid chromatography with tandem mass spectrometry (LC-MS/MS) as described in published method [Sillén H., et al., J Chromatogr B Analyt Technol Biomed Life Sci 2010; 878: 2299-306] with the following deviations. Plasma, 50 μL, was protein precipitated with 180 μl internal standard (D7-ZD6140) in acetonitrile. The liquid chromatographic system and mass spectrometer was an Acquity Ultra Performance LC coupled to a Xevo TQ-S mass spectrometer from Waters. Chromatographic separation was achieved on an Aquity UPLC® BEH C18 column (2.1×50 mm, particle size 1.7 um). Negative electrospray ionization was utilized. Eluent A was water with 10 mmol/L ammonium acetate, pH5 and eluent B was acetonitrile with 10 mmol/L ammonium acetate. Injection volume was 1 to 5 μL and the analytical gradient started with 4% B, increasing to 95% in 1.5 min, remaining until 2.3 min, before returning to initial conditions within 2.4 min followed by 0.3 min re-equilibration. No quality control samples were used in the analysis. The lower limit of quantification (LLOQ) was 0.005 μmol/L and the calibration range was 0.005 to 15.0 μM.
The total plasma concentrations of ticagrelor and TAM in presence of TICA0212/MEDI2452 were determined by adding 1% formic acid (FA: Sample, 1:5) followed by protein precipitation and LC-MS/MS as described above. Formic acid was added to the sample to facilitate dissociation of ticagrelor and TICA0212/MEDI2452.

For another data set, the target named is TICA0072 Fab. Kind of data set: HTRF competition binding selectivity assay, TICA0072 His-Fab. Also on record: species or system human. On the procedure:
(§1) Total Binding control wells were set up which contained all of the assay components above except that 5 ul assay buffer was added in place of the test selectivity compound addition. Negative Binding control wells were set up which contained all of the assay components included in the Total Binding control wells except that 5ul assay buffer was added in place of the His-Fab addition. Test compound serial titrations were either ½ or ⅓ depending on the particular experiment and top final assay compound concentrations were optimized on a compound specific basis. The concentration of biotinylated ticagrelor and His-Fab was optimized on a Fab specific basis in separate experiments. For the four Fabs investigated at the end of the lead isolation phase (TICA0010, TICA0049, TICA0053 and TICA0072) the final assay reagent concentrations used are set out in Table 1 below:
(§2) For the two Fabs investigated at the end of the lead optimization phase (TICA0162 and TICA0212) the final assay reagent concentrations used were 5nM biotinylated ticagrelor and 1 nM His Fab in both cases. […] In order to enable subsequent normalization of data to correct for any such vehicle related effects parallel titrations of DMSO alone were included in most experiments in which the final assay DMSO concentrations mirrored those of the test compound serial dilutions. At the end of the set up procedure that assay was incubated for 3hrs at RT before being read on an Envision plate reader using a standard read protocol.
The negative ratio value used in the calculation of % Delta F was derived from the Negative Binding control wells. % Delta F values were then used to calculate % Specific Binding values according to the equation below: Specific Binding (%)={(Sample Delta F−Negative Binding Delta F)/(Total Binding Delta F−Negative Binding Delta F)}×100
For standard calculations of % Specific Binding Total Binding Delta F was taken from Total Binding control wells which contained all of the aforementioned components of the assay but without inclusion of any competing test compound.
(§3) In those experiments where DMSO normalization was applied DMSO normalised % Specific Binding was calculated essentially according to the equation above except that in this case Total Binding Delta F was taken from wells containing all of the components in the Total Binding control wells as well as DMSO at a concentration equivalent to that in the relevant sample well.
In a second series of experiments further selectivity data was generated for TICA0049 and TICA0072 Fabs in which a subset of four of the twelve compounds listed in FIG. 4 were retested along with ticagrelor, TAM and TIM and several adenosine related compounds. Here, in a refinement to the earlier investigations in Table 2, experiments were designed in order to enable normalisation of percent specific binding values to correct for any non-specific vehicle related effects due to DMSO. Example plotted data from this second series of experiments is shown in FIG. 5A-F along with tabulated IC50 values in Table 3.

Another data set concerns the target TICA0212 Fab. Briefly: HTRF competition binding selectivity assay, TICA0212 His-Fab. Set-up: species or system human. The following applies: Table 7, DMSO normalised; 5 nM biotinylated ticagrelor, 1 nM His Fab; read-out: IC50 (uM) for inhibition of biotinylated ticagrelor binding to TICA0212 Fab. On the procedure:
as §1
For the two Fabs investigated at the end of the lead optimization phase (TICA0162 and TICA0212) the final assay reagent concentrations used were 5nM biotinylated ticagrelor and 1 nM His Fab in both cases. […] At the end of the set up procedure that assay was incubated for 3hrs at RT before being read on an Envision plate reader using a standard read protocol. […]

The target in the next data set is TICA0162 Fab. Briefly: HTRF competition binding selectivity assay, TICA0162 His-Fab. Also on record: species or system human. The following applies: Table 7, DMSO normalised; 5 nM biotinylated ticagrelor, 1 nM His Fab; read-out: IC50 (uM) for inhibition of biotinylated ticagrelor binding to TICA0162 Fab. On the procedure: as §1
as §2, with “protocol. […]” for “protocol.”
as §3

Like-named read-outs stand apart in the source and are kept apart here.

Regarding `CCCSc1nc(N[C@@H]2C[C@H]2c2ccc(F)c(F)c2)c2nnn([C@@H]3C[C@H](OCCO)[C@@H](O)[C@H]3O)c2n1` [Ticagrelor, (1S,2S,3R,5S)-3-[7-{[(1R,2S)-2-(3,4-difluorophenyl)cyclopropyl]amino}-5-(propylthio)-3H-[1,2,3]triazolo[4,5-d]pyrimidin-3-yl]-5-(2-hydroxyethoxy)cyclopentane-1,2-diol], the “ticagrelor plasma exposure, average” value in data set [1] (Example 11, after termination of the ticagrelor infusion, i.v., mice) was found to be 1.4 µM. The “mean total plasma concentration” value in data set [1] (Example 12, end of ticagrelor infusion 300 μg/kg/min 20 min, mice) turned out to be 7.6 µM. Besides, the “mean total plasma concentration at time of tail cut” value in data set [1] (Example 12, vehicle treated mice, t=30 minutes) was found to be 2.4 µM. Further, the IC50 at TICA0072 Fab (first series (Table 2), not DMSO normalised, read-out: IC50 (uM) for inhibition of biotinylated ticagrelor binding to TICA0072 his-Fab) came to 0.113 µM; on TICA0072 Fab (second series (Table 3), DMSO normalised, read-out: IC50 in competition binding selectivity studies, TICA0072), 0.356 µM; on TICA0212 Fab, 0.035 µM; at TICA0162 Fab it was 0.023 µM.
